Measurements as given in patent US9669030B2, “Hydantoin derivatives as Kv3 inhibitors” (AUTIFONY THERAPEUTICS LIMITED, priority 2012, dated 2017).

Tested on: chinchilla model of acute noise-induced hearing loss
Test: chinchilla model of acute noise-induced hearing loss, auditory brainstem response thresholds
Assay type: in vivo
Settings: 60 mg/kg intraperitoneal, doses 12 hours apart, five pre- and five post-noise, 105 dB SPL noise centered at 4 kHz for 6 hours, 21 days after noise exposure, 2, 4, 6, 8 kHz, p<0.01
From the text: The otoprotective efficacy (i.e. the ability to prevent or reduce the development of permanent acute noise-induced hearing loss) of an exemplary Kv3 modulator, Example 64 described within WO2011069951A1 ((5R)-5-ethyl-5-methyl-3-[2-({4-methyl-3-[(trifluoromethyl)oxy]phenyl}oxy)-5-pyrimidinyl]-2,4-imidazolidinedione), referred to herein as “COMPOUND X”, was investigated using a chinchilla model of acute noise-induced hearing loss, as follows:
Subjects comprised male, 3 year old chinchillas (Laniger), 10 animals per group. Chinchillas were housed in the study facility for a minimum of 5 days prior to noise exposure. Food and water were available ad libitum. Animals were maintained at 21° C. on a 12/12 light/dark cycle. […]
Auditory brainstem responses (ABRs) were collected prior to noise exposure and 21 days after noise exposure. […] Thresholds were measured in response to tone-bursts with 1 ms rise/fall and a 0 ms plateau gated by a Blackman envelope and centred at the frequencies of 2, 4, 6 and 8 kHz, presented at 30/s. […]
The thresholds for ABRs at the four different sound frequencies at day 21 post-noise exposure were compared to the thresholds at baseline, prior to noise exposure in order to determine a threshold shift for each animal. The data were then analysed using a 2-way ANOVA, with treatment and frequency as main factors.

## CC[C@@]1(C)NC(=O)N(c2cnc(Oc3ccc(C)c(OC(F)(F)F)c3)nc2)C1=O [COMPOUND X, (5R)-5-ethyl-5-methyl-3-[2-({4-methyl-3-[(trifluoromethyl)oxy]phenyl}oxy)-5-pyrimidinyl]-2,4-imidazolidinedione]
  permanent threshold shift in ABRs: significantly reduced
